Read-outs that look alike come from different tables or passages of the source.
Legend:
ICR female mice = assay: Blood glucose reducing activity through intraperitoneal glucose tolerance test (IPGTT); assay type: in vivo; conditions: 10 nmol
Description: Long-acting of the blood glucose reducing effect was tested in this example to determine long-acting of the blood glucose reducing activity of Compound 35 of the present invention. As control samples for determining blood glucose reducing activity and long-acting of the activity, native Exendin-4 was used, and the activity of each peptide sample was measured by intraperitoneal glucose tolerance test (IPGTT).
ICR female mice (6 weeks old, DaehanBioLink, Korea) were employed as test animals, after being adapted in lab for 7 days. Before the test, 8 mice were picked out of each group and blood was collected from tail to measure the glucose concentration in blood using glucometer (Accucheck Sensor, Roche), and then, starved for 15 to 18 hours. […] At each determined time, blood was corrected from caudal vein and the level of glucose therein was measured with glucometer. The experiments for the determination of blood glucose reducing activity and the long-acting of the activity are summarized in Table 5.
The animal test results with respect to the long-acting of blood glucose reducing effect, when Compound 35 of the present invention, and […], were measured through IPGTT, and shown in FIGS. 1 and 2. […]

activated HSA = activated HSA (Homo sapiens, UniProt P02768)
Description: Such binding degree to albumin can be simply qualitatively or quantitatively measured by an in vitro analysis using a simple HPLC.
Human serum albumin (HSA, 1 mM) solution was prepared by dissolving 66.5 mg of the activated HSA prepared in Example 3 in PBS buffer solution (pH 7.2, 1 ml). Stock solutions (1 mM) of bioactive substance Compound 15 (1.8 mg/ml) and Leuprolide (1.2 mg/ml) were respectively prepared by the same method.
The stock solutions prepared in the above method were diluted with PBS buffer so that they had the compositions shown in Table 2 below thereby to prepare sample solutions (100 μl) for determination. Then, each reaction mixture was mixed and slowly shaken in an incubator for 30 min while the temperature condition of 37° C. was kept. After incubation, methanol (150 μl) was added to each sample vial, which was then voltexed for 10 min, to precipitate HSA. The precipitated albumin was spun down by centrifugation (12,000 rpm, 10° C., 10 min.) and the supernatants (50 μl) were taken and analyzed using HPLC under the same conditions.
The degree of conjugation was examined with increasing the concentration of the bioactive substance compounds at the fixed concentration of albumin.

activated HSA, sequence (P02768 25-609): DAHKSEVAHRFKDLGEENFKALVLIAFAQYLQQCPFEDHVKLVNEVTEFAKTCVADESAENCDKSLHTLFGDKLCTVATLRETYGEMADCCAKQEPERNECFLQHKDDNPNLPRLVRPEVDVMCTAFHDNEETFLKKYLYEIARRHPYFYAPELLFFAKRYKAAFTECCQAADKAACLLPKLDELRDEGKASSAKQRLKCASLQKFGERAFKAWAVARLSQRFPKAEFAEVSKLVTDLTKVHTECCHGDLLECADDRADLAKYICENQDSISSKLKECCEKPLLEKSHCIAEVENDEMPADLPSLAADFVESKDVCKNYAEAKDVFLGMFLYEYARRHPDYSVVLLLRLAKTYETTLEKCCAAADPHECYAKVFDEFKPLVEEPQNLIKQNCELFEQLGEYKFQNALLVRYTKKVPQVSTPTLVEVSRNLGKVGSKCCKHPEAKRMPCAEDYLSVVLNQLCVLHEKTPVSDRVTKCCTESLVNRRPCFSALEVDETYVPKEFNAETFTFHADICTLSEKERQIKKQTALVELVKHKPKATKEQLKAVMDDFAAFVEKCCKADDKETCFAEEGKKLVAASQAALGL

| PA 20.6 min (peak area) (activated HSA; Compound 15/albumin 5/50 (μl of 1 mM stocks), PBS, 37° C., 30 min, supernatant HPLC) | PA 20.6 min/4.4M (activated HSA; Compound 15/albumin 5/50, relative to Compound 15 only) | PA 20.6 min/4.4M (activated HSA; Compound 15/albumin 10/0, Compound 15 only) | PA 20.6 min (peak area) (activated HSA; Compound 15/albumin 10/0, Compound 15 only, M: million) [M] | PA 20.6 min (peak area) (activated HSA; Compound 15/albumin 10/50 (μl of 1 mM stocks), PBS, 37° C., 30 min, supernatant HPLC) | PA 20.6 min/4.4M (activated HSA; Compound 15/albumin 10/50, relative to Compound 15 only) | PA 20.6 min (peak area) (activated HSA; Compound 15/albumin 20/50 (μl of 1 mM stocks), PBS, 37° C., 30 min, supernatant HPLC, M: million) [M] | PA 20.6 min/4.4M (activated HSA; Compound 15/albumin 20/50, relative to Compound 15 only) | PA 20.6 min (peak area) (activated HSA; Compound 15/albumin 40/50 (μl of 1 mM stocks), PBS, 37° C., 30 min, supernatant HPLC, M: million) [M] | PA 20.6 min/4.4M (activated HSA; Compound 15/albumin 40/50, relative to Compound 15 only) | PA 20.6 min (peak area) (activated HSA; Compound 15/albumin 50/40 (μl of 1 mM stocks), PBS, 37° C., 30 min, supernatant HPLC, M: million) [M] | PA 20.6 min/4.4M (activated HSA; Compound 15/albumin 50/40, relative to Compound 15 only) | PA 20.6 min (peak area) (activated HSA; Compound 15/albumin 50/50 (μl of 1 mM stocks), PBS, 37° C., 30 min, supernatant HPLC, M: million) [M] | PA 20.6 min/4.4M (activated HSA; Compound 15/albumin 50/50, relative to Compound 15 only) | binding of Compound 15 to albumin (activated HSA; binding test of albumin and Compound 15) | Substance | blood glucose reducing curve in IPGTT versus saline control (ICR female mice; subcutaneous once 10 hours before intraperitoneal glucose (2 g/kg)) | blood glucose reducing curve in IPGTT versus saline control (ICR female mice; subcutaneous once 24 hours before intraperitoneal glucose (2 g/kg)) |
| --- | --- | --- | --- | --- | --- | --- | --- | --- | --- | --- | --- | --- | --- | --- | --- | --- | --- |
| – | – | – | – | – | – | – | – | – | – | – | – | – | – | – | Exendin-4 | no significant difference | no significant difference |
| 0 | 0 | 1.0 | 4.4 | 0 | 0 | 1.3 | 0.3 | 9.8 | 2.2 | 17.9 | 4.0 | 14.7 | 3.3 | bound | Leuprolide-GSG-Lys-[ε-AEEA-CO—(CH2)2—SH]—NH2.2TFA [Compound 15] | – | – |

From US20100021480A1, “BIOACTIVE SUBSTANCE-BLOOD PROTEIN CONJUGATE AND STABILIZATION OF A BIOACTIVE SUBSTANCE USING THE SAME” (priority 2005, published 2010)
